The values below come from patent US20220152228A1, “COMPOSITIONS AND METHODS FOR RADIOTHERAPY USING CHELATED RADIOTHERAPEUTIC AGENTS AND NON-TARGET TISSUE BLOCKADE” (Washington University, priority 2019, published 2022).

Read-outs that look alike come from different tables or passages of the source.

Data set [1] is described as follows: 223Ra organ distribution in mice pre-treated with ion-channel modulator. In kind it is in vivo, C57/Bl6 mice. As to the method: Healthy male C57/Bl6 mice were randomized received a combination treatment with intraperitoneal injection of Amiloride (inhibitor, red) or NS-1619 (activator, green) or saline (control, grey) followed by a clinical dose of ^223RaCl2 1 h post-drug administration. Radioactive organ distribution was then measured at 15 min, 1 h and 4 h post ^223Ra treatment. […] Comparing bone uptake, as early as 15 min, osseous absorption is was half for the NS-1619-treated group as compared to the amiloride or the control group.
Male C57Bl/6 aged 10 weeks (n=6 per treated group) were administered intraperitoneally Amiloride (12.5 mg/kg-150 uL 2% v/v DMSO) or NS-1619 (1 mg/kg-150 uL 2% v/v DMSO) or saline 1 h prior ^223RaCl2 i.v. administration (3.7 KBq/100 uL buffer). Animals were kept awake between each injection. 15 min; 1 h and 4 h post ^223Ra administration: blood; spleen; kidney; stomach; duodenum; jejunum; ileum; cecum; colon; muscle; fat and bone tibia were harvested, weighed and gamma counted. Gamma counting was conducting utilizing a Perkin Elmer Wizard2 counter with readings of energies set 150-350 KeV, with 10 min reading for each sample. Standard corresponding to 10% of injected activity were measured as well; allowing for the calculation of % Injected activity (% IA) normalized to tissue weight (% IA/g).

For data set [2], the system named is ^223Ra transport through caco-2 monolayers. In words: Ion-channel ligand library screen for 223Ra flux through caco-2 monolayers. In kind it is cell-based. The settings on record: 20 μM, BL to AP, normalized to treatment-free flux. How it is done:
Caco-2BBe1 (brush border expressing clone of parent Caco-2 line) monolayers, modelling colon tissue, were used. Caco-2 monolayers were utilized for ion-channel ligand library screening (52 compounds) testing epithelial ion-transport activation or blocking of radioactive transfer (see e.g., FIG. 15A). Caco-2 cells were seeded 15 K cells/well in 96 trans-well filter plate and assayed 10 days post-seeding. […] The screening material was sampled at 20 μM per BL well (n=3/molecules).
The monolayers integrity was monitored using a lucifer yellow permeability assay. The fluorescent tracer was loaded in the AP compartment, and fluorescence permeability was read in the BL vial. % Lucifer Yellow Passage (LYp %) was calculated as the percentile ratio of relative Fluorescence Units-535 nm (FU) of the assayed BL over FU of complete transfer in BL well.
Radioactive reading was accomplished sampling AP compartments on Luma plates and reading the dried luminescence using Topcount scintillation counter. […] Averaged drug-assayed measurements (n=3) were normalized to treatment-free flux.

The procedure of data set [3]: The animals were maintained for 20 days with food and water and submitted to blood chemistry analysis (Abaxis Vscan 2) at day 1; 7 and 19 d post-treatment. Weight was monitored for each cohort over 20 days. At the end of the study (day 20 post-treatment), animals were sacrificed and whole limbs and kidneys were harvested for gamma counting and histopathological assessments, respectively.
Kidneys were collected 20 days post-treatment and the tissues were fixed in formalin for 72 h then transferred to saline. Tissues were processed by dehydration, paraffin embedding, and sectioning at 4 μm. Adjacent sections were stained with H&E, PAS and Masson's trichrome.

For data set [4] the following is noted: aqueous solution, physiological pH, Ba2+ complex; cited from earlier work.
Data set [5] has as its system human serum proteins. The settings on record: for activity in early protein fractions (5-15 mL), affinity with proteins: 2 h of incubation in serum proteins.
Description: Next, the stability of the complex to serum proteins was determined in vitro, simulating the complex biological environment encountered in vivo.
Alternatively, size exclusion chromatography (SEC) was utilized to identify each species in solution. […] Chelated activity % was measured integrating gamma counts of macropa peak (20 mL) over the sum counts of all collected fractions (0-47 mL) (see e.g., FIG. 3E).
The source holds these as a separate data set.
Data set [6] deals with metastatic castration-resistant prostate cancer. Particulars: mCRPC patients, vs. 11.9 months in control patients; cited from earlier work.
For data set [7] the following is noted: after administration to mice.
Description: The whole gastrointestinal tracts from stomach to rectum were rapidly harvested and placed directly on plastic wraps set over autoradiographic phosphor screens for 90 min exposure in the dark. The autoradiographic prints were read on Cyclone Phosphor Imager (Packard), 300 DPI confocal laser stimulation; 16-bit ADC; utilizing FIJI processing with median filter. For FIJI readings of the autoradiographic files, data were converted to 32-bit format utilizing “square and scale n16” plug in. Radioactive signal intensity was translated into dynamic light units (see e.g., FIG. 12A). Signal intensity was plotted over the GI tract length from the stomach (start=0) to the cecum (˜200 mm) comparing various time points (see e.g., FIG. 12B). Results were comprised as well into profiles curves per organ region of interests including: stomach, cecum or the whole intestinal tract (see e.g., FIG. 12C).
Data set [8] deals with colon and duodenum. Particulars: mice, uptake in the intestine.
Description: Animals were fasted and supplemented with Golytely (24 g/350 mL) 2 h prior injections and sacrificed 24 h post administration. Sections (1 cm) of each gastrointestinal region from the duodenum, jejunum, ileum to the colon were rapidly harvested. GI specimen were set onto previously partially solidified OCT gel block, then fully coated with OCT and flash frozen. Gastrointestinal transversal sectioning was conducted utilizing Leica microtome, 10 μm sections. Fresh frozen sections were collected on tape and stored at −20° C.
Gastrointestinal tissue sections were fixed immerging tapes in 10% paraformaldehyde (PFA) for 15 min followed by a washing with PBS 1×. Following fixation, tissues were mounted directly with DAPI and/or TRITC-Phalloidin mounting media under cover slip ready for imaging.
A second fixations was proceeded using 10% PFA and washed with deionized water. Tissues were then reacted using buffer reaction mixtures from Click-iT Plus TUNEL assay. Positive control were conducted, treated similarly with an additional DNAase treatment. Final counterstaining was conducted using Hoechst33342 (1:5000) before mounting taped tissue specimen under cover slip with 30% aqueous glycerol.
For γH2AX staining, tissues were fixed and submitted to blocking serum reagent, 1 h at room temperature. […]
The subject of data set [9] is human duodenal enteroid monolayers. How it is done:
An in vitro patient-derived organoid model of functional gut epithelium was developed by plating human duodenal enteroid monolayers on a permeable trans-well scaffold.
Intestinal cellular models—human duodenal enteroids and caco-2 monolayers—were grown on a trans-well polymeric filter plate divided in a lower and an upper incubation compartments modeling basolateral and apical side of the epithelium, respectively.
Human duodenal enteroids (see e.g., FIG. 13A) were reconstituted and grown from healthy patient-derived cellular crypts tissue samples. Both differentiated (DF) and undifferentiated (UDF) conditions were tested. DF monolayers were induced by removal of Wnt3A and R-spondin factors from the incubation media, as described previously.
DF or UDF duodenal enteroids were set and grown on 24-transwell plates for 2 weeks until cell confluency was reached, leading to closed monolayer membranes. […] Temperature-dependent transport 37° C. versus 4° C. was tested on UDF enteroids (see e.g., FIG. 13B). DF versus UDF enteroids phenotypes transfer were compared, selecting monolayers with similar range of TEER (1200<TEER<1800 D/m) (see e.g., FIG. 13C).

[10] abbreviates: human serum proteins, 37° C., 12 days.

On to `N=C(N)NC(=O)c1nc(Cl)c(N)nc1N` [Amiloride], for which the “upper GI radioactive uptake (combined % IA of stomach, duodenum, jejunum)” value was “lower radioactive content” in data set [1] (15 min p.i.) and “No difference” in [1] (4 h p.i.). In addition, in data set [1] (4 h p.i., modulator i.p. 1 h before 223RaCl2), the “223Ra sequestration in bone, times higher versus control or NS-1619” value was “over 1.5 times”. The “area under the curve of bone uptake versus 223RaCl2 alone” value in [1] (combination with 223RaCl2, FIG. 17) is listed as “significantly larger”. Also, the “effect on 223Ra transport through monolayers” value (shortened to “effect”) in data set [2] was “inhibitor”. In addition, in [3] (combination treatment, 20 days following treatment, P=0.0283), the “increase in 223Ra bone-homing (whole legs gamma-counted) versus Radium-223 alone” value was determined as 15%. In addition, in data set [3] (day 1 to day 19 post-treatment), the “blood chemistry profile, Radium versus Radium/Amiloride cohorts” value was “no profile difference”.

`O=c1[nH]c2cc(C(F)(F)F)ccc2n1-c1cc(C(F)(F)F)ccc1O` [NS-1619]: the “upper GI radioactive uptake (combined % IA of stomach, duodenum, jejunum)” value in data set [1] (1 h p.i.) is “significantly higher”; in [1] (4 h p.i.) it was “No difference”. Besides, in [2], the “effect” value is reported as “activator”.

As for `O=C([O-])c1cccc(CN2CCOCCOCCN(Cc3cccc(C(=O)[O-])n3)CCOCCOCC2)n1.[Ba+2]` [[(Ba)macropa]], the “stability constant (log K′ML,pH7.4)” value in data set [4] is reported as 10.74.

As for `O=C([O-])c1cccc(CN2CCOCCOCCN(Cc3cccc(C(=O)[O-])n3)CCOCCOCC2)n1.[223Ra+2]` [[(^223Ra)macropa]], in data set [5], the “activity in early protein fractions (5-15 mL), affinity with proteins” value is given as “no registered activity in the early fractions”. Moreover, in data set [5] (setting [10]), the “223Ra retained (chelated activity) after serum protein challenge” value is reported as more than 90% and the “decomplexation after serum protein challenge” value is reported as 10%. The “fold lower bone uptake than free 223Ra” value (15 min and 24 h p.i., FIG. 4C legend) was 10-25 fold. Under “15 min p.i.”, the “fold lower bone uptake compared to 223RaCl2 in citrate” value was found to be 10 fold. The “fold lower bone uptake compared to 223RaCl2 in citrate” value (24 h p.i.) worked out at 20 fold. Also, the bone uptake (24 h p.i., macropa study) was 1.6±0.2 % IA/g. Moreover, the excretion route result (animal models, compared to bare ion (Xofigo)) is recorded as “quantitatively excreted via renal filtration”. In addition, where the note is “compared with 223RaCl2”, the “accumulation in the spleen and the gut” value is on record as “prevented accumulation”. The “fold higher signal in equal volume of urine (bladder) than 223RaCl2 group” value (early time point (15 min)) is 300 fold. Further, the “complex status in urine after excretion (SEC)” value (urine samples of chelator-administered group) is “intact”.

Regarding `[Cl][223Ra][Cl]` [^223RaCl2, Radium-223 Dichloride], in data set [5], the “activity in early protein fractions (5-15 mL), affinity with proteins” value is reported as “no registered activity in the early fractions”. Further, the median survival in data set [6] is listed as 14.9 months. In data set [7], the “small bowel and stomach accumulation” value is on record as “observed within minutes”. Further, the “apoptosis and DNA damage in cells of the colon and duodenum” value in data set [8] is “increased cell apoptosis and DNA damage”. Also, the “223Ra transport, differentiated versus undifferentiated enteroids” value in [9] (basolateral to lumen compartment, P<0.05) is given as “superior capacity to transport”. Besides, in data set [9] (undifferentiated enteroids, basolateral to apical), the “transport of radioactivity, 37° C. versus 4° C.” value was “temperature-dependent active transport”. For the same molecule, the bone uptake by setting is: (24 h p.i., macropa study) 22±1 % IA/g; (24 h p.i., macropa-β-alanine study, naive skeletally mature mice) 9.7±1.66 % IA/g. Moreover, the splenic uptake (24 h p.i., macropa-β-alanine study) was 5.52+/−2.3 % IA/g.

As for `C/C=C(/C)C(=O)O[C@H]1C(C)=C2[C@H]([C@@H]1OC(=O)CCCCCCC)[C@@](C)(OC(C)=O)C[C@H](OC(=O)CCC)[C@@]1(O)[C@H]2OC(=O)[C@@]1(C)O` [thapsigargin], the “effect” value in [2] is reported as “does not increase transport”.
